Key:
Type in all cases: cell-based
[1] = test system: activated CHK1, ATR, BRCA1; experiment: Western blot of checkpoint proteins; details: miR-584-5p mimic-transfected MB cells
Experimental: FIG. 13C-D show representative immunofluorescence images showing 53BP1 foci in D556Med cells transfected with miR-NC or miR-584-5p mimic (C) or scramble-siRNA or eIF4E3/HDAC1-siRNAs (D) and treated with or without 10 Gy of IR.
Immunofluorescence and Western blot analysis Immunofluorescence analyses was carried out on cells fixed in 4% paraformaldehyde (Imam, J. S. et al. PLoS One 7, e52397, (2012)). Western blot analysis was performed on cell extracts from miR-584-5p mimic- or target gene siRNA-transfected MB cell lines in accordance with previously reported studies (Rajamanickam, S. et al. Clin Cancer Res 22, 3524-3536, (2016); and Imam, J. S. et al. PLoS One 7, e52397, (2012). Antibodies against horseradish peroxidase-conjugated β-actin (1:50,000; #A5316), β-tubulin (#T8328), and glyceraldehyde-3-phosphate dehydrogenase (GAPDH) (1:25,000; #G9295) were purchased from Sigma-Aldrich. Antibody against eIF4E3 (1:1000; #17282-1-AP) was purchased from Proteintech. Antibodies against HDAC1 (1:1000; #5356), pCHK1 (1:1000; #2348), and CHK1 (1:1000; #2360) were purchased from Cell Signaling Technology (Danvers, Mass., USA). Antibodies against MYC (1:1000; #Sc-40), BRCA1 (1:1000; #6954), and ATR (1:1000; #sc-515173) were purchased from Santa Cruz. Antibody against 53BP1 (1:300; #A300-272AT) was purchased from Bethyl Laboratories. […]

[2] = test system: neural stem cell markers; experiment: qPCR analysis of neural stem cell markers; details: miR-584-5p mimic-transfected cells
Experimental: Several research groups have posited the presence of tumor-initiating cells in MBs (Manoranjan, B. et al. Pediatr Res 71, 516-522, (2012)). Moreover, the tumor-initiating cells in general have not responded to radiation and chemotherapy drugs (Manoranj an, B. et al. Pediatr Res 71, 516-522, (2012)). Therefore, it was tested whether miR-584 may inhibit MB tumor-initiating cell proliferation. Consistent with the characteristics of tumor-initiating cells, MB cells cultured in serum-free stem cell media formed tumor spheres that were serially passaged for many cycles (FIG. 14A). Bar graphs show number and size of medullospheres obtained from D556Med cells transfected with miR-NC or miR-584-5p mimic. The p-value was calculated using a standard Student t-test. Error bars represent mean±SEM. […] The p-value was calculated using one-way ANOVA followed by Sidak's multiple-comparisons test. Error bars represent mean±SEM. These findings are highly significant because, this study is one of the first to propose a role for miR-584-5p and its target genes in regulating MB stem cell proliferation.

[3] = test system: D556Med cells; experiment: c-Myc overexpression rescue, cell viability/clonogenic/migration; details: cells transfected with c-Myc expression vector
Experimental: FIG. 15A depicts a photomicrograph showing migrated MB cells transfected with control plasmid, c-Myc overexpression plasmid or c-Myc overexpression plasmid+miR-584-5p mimic.
Because c-Myc supports cancer stem cell growth, promotes radioresistance (Gravina, G. L. et al. Radiat Res 185, 411-422, (2016)), and has elevated levels in VCR-resistant cancer cells (He, Y., Zhang, J., Zhang, J. & Yuan, Y. Chin Med J (Engl) 113, 848-851 (2000)), it was tested whether miR-584-5p and its target genes may regulate c-Myc-amplified MB growth and therapy sensitization by targeting c-Myc levels/functions. […] In FIG. 14D, the p-values were calculated using standard Student t-tests. Error bars represent mean±SEM. Because no predicted miR-584-5p binding site exists in the c-Myc 3′-UTR, miR-584-5p probably regulates c-Myc levels indirectly. To test that possibility, it was assessed whether miR-584-5p target genes may regulate c-Myc levels in MB. Moreover, eIF4E1 (not eIF4E3) induced c-Myc protein expression in diffuse B-cell lymphoma cells (Landon, A. L. et al. Nat Commun 5, 5413, (2014)). […] Cell viability was assessed using alamarBlue. The p-value was calculated using one-way ANOVA followed by Sidak's multiple-comparisons test. […]

“miR-584-5p: microRNA mimic; nucleotide sequence UUAUGGUUUGCCUGGGACUGAG (SEQ ID NO: 1); purchased from Thermofisher (chemistry not given here)” was tested, and the “levels of activated CHK1 and ATR, as well as BRCA1” value [1] was “significantly lower levels”, the “levels of neural stem cell markers” value [2] was “significantly reduced” and the “growth-promoting effect of c-Myc overexpression” value [3] was “rescues cancer growth-promoting effects of c-Myc”.
